The source of these data is patent US20250177383A1, “DI-CYCLOPROPYL BASED IL-17A MODULATORS AND USES THEREOF” (DICE ALPHA, INC., priority 2022, published 2025).

One experiment addresses T1, IL-17A/A (Homo sapiens, UniProt Q16552).
T1 sequence (Q16552 24-155): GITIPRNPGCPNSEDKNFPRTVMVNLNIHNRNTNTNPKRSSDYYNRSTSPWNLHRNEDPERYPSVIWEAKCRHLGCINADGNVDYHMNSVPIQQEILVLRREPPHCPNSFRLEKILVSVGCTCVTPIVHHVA
Nature of the experiment: IL-17A/A HEK-Blue Cell Assay. Type of experiment: cell-based. The conditions noted are these: HEK-Blue IL-17 reporter cells, IL-17A/A stimulation, 20 hours, SEAP readout; read-out: IL17 AA HEK-5 pIC50 (converted). On the procedure:
(§1) The HEK-Blue IL-17 reporter cell line (Fisher #NC1408637) was used for cell-based IL-17A/A inhibition assays. Cells were grown and prepared for assays according to the manufacturer's instructions. This cell line consists of HEK 293 cells that were designed to expressed IL-17R^A, IL-17R^C, and the ActI adapter molecule, the combination of which, when stimulated by IL-17A/A activates a NFκB promoter and drives expression of a recombinant Secreted Alkaline Phosphatase (SEAP) protein. Media from the cells is then added to a development reagent (Quanti-Blue Substrate, Fisher #NC9711613), and read at A630.
Compounds were titrated in DMSO, with a top final compound concentration of 10 uM and added to the cells immediately before adding IL-17A/A (Genscript #Z03228). The cells, compound, and IL-17A/A were then incubated for 20 hours before media was removed for SEAP analysis. The resulting inhibition curve was then analyzed using a Dotmatics screening protocol, and IC50 values were determined using a 4-parameter nonlinear fit. DMSO was added to a universal final concentration of 0.1% to optimize background. IL-17A/A inhibition data is provided in Table 1 for selected compounds.

A further experiment concerns the target T2, IL-17A/F (Homo sapiens, UniProt Q16552+Q96PD4).
T2 sequence (Q16552 24-155): T1 sequence (Q16552 24-155)
T2 sequence (Q96PD4 31-163): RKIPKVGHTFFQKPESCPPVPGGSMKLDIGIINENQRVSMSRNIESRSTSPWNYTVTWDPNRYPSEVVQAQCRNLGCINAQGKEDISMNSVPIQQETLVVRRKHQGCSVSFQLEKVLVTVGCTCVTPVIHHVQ
The experiment is described as follows: IL-17A/F HEK-Blue Cell Assay. Type of experiment: cell-based. The conditions noted are these: HEK-Blue IL-17 reporter cells, IL-17A/F stimulation, 20 hours, SEAP readout; for IC50: read-out: IL17AF HEK Blue pIC50 (converted). On the procedure:
as §1, with “cell-based IL-17A/F” for “cell-based IL-17A/A”, “expressed IL-17RA,” for “expressed IL-17R^A,”, “(SEAP) geneprotein.” for “(SEAP) protein.”
Compounds were titrated in DMSO and added to the cells immediately before adding IL-17A/A (Custom from R&D systems, untagged IL-17A/F+BSA as a carrier protein). The cells, compound, and IL-17A/A were then incubated for 20 hours before media was removed for SEAP analysis. The resulting inhibition curve was then analyzed using a Dotmatics screening protocol, and IC50 values were determined using a 4-parameter nonlinear fit. DMSO was added to a universal final concentration of 0.1% to optimize background.

Regarding `CCn1nccc1C(=O)N[C@H](C(=O)Nc1ccc([C@H](C)[C@@H](NC(=O)[C@@H](C)F)C(=O)N2CCNC(CF)C2)cc1F)C(C1CC1)C1CC1` (single isomer, unassigned) [Compound 303], the figures for the IC50 on IL-17A/A and at IL-17A/F were 10 to 100 nM and 100 to 10000 nM, respectively.

For `CCn1nccc1C(=O)N[C@H](C(=O)Nc1ccc([C@H](C)[C@@H](NC(=O)[C@H](C)OC)C(=O)N2C[C@H]3C[C@@H](C2)N3C)cc1F)C(C1CC1)C1CC1` [Compound 307], the IC50 at IL-17A/A is 10 to 100 nM; on IL-17A/F, 100 to 10000 nM.

For the compound `CCn1nccc1C(=O)N[C@H](C(=O)Nc1ccc([C@H](C)[C@@H](NC(=O)COC)C(=O)N2CCN(C)C[C@@H]2C)cc1F)C(C1CC1)C1CC1` [Compound 283], the values for the IC50 at IL-17A/A and at IL-17A/F were below 10 nM and 10 to 100 nM, respectively.

Regarding `CCOC(=O)N1CCC[C@H]1C(=O)N[C@@H](C(=O)N1CCN(C)[C@H](C)C1)[C@@H](C)c1ccc(NC(=O)[C@@H](NC(=O)C2(F)CC2)C(C2CC2)C2CC2)c(F)c1` [Compound 279], the IC50 on IL-17A/A is below 10 nM; at IL-17A/F, 100 to 10000 nM.

In the case of `COCC(=O)N[C@@H](C(=O)N1C[C@@H](C)N(C)C[C@H]1C)[C@@H](C)c1ccc(NC(=O)[C@@H](NC(=O)C2(F)CC2)C(C2CC2)C2CC2)c(F)c1` [Compound 289], the IC50 on IL-17A/A was below 10 nM; at IL-17A/F, 100 to 10000 nM.

For the compound `CCC(=O)NC(C(=O)N1CCN(C)CC1)C(c1ccc(NC(=O)[C@@H](NC(=O)c2ccnn2CC)C(C2CC2)C2CC2)c(F)c1)C(F)(F)F` (single isomer, unassigned) [Compound 352], the IC50 on IL-17A/A was 100 to 10000 nM. The “IL17AF HEK Blue pIC50” value on IL-17A/F is “C (7>C≥5)”.

In the case of `CO[C@@H](C)C(=O)N[C@@H](C(=O)N1CCN(C)[C@H](C)C1)[C@@H](C)c1ccc(NC(=O)[C@@H](NC(=O)c2ccnn2C2CC2)C(C2CC2)C2CC2)c(F)c1` [Compound 342], the IC50 on IL-17A/A was below 10 nM; on IL-17A/F it was 10 to 100 nM.

As for `CCn1nccc1C(=O)N[C@H](C(=O)Nc1ccc([C@H](C)[C@@H](NC(=O)[C@H](C)OC)C(=O)N2CCN(C)C[C@@H]2C)cc1F)C(C1CC1)C1CC1` [Compound 284], the IC50 on IL-17A/A was below 10 nM; at IL-17A/F it was 10 to 100 nM.

In the case of `CCOC(C)C(=O)N[C@@H](C(=O)N1CCN(C)CC1)[C@@H](C)c1ccc(NC(=O)[C@@H](NC(=O)c2ccnn2CC)C(C2CC2)C2CC2)c(F)c1` (single isomer, unassigned) [Compound 328], the IC50 at IL-17A/A was below 10 nM; on IL-17A/F it was 10 to 100 nM.

Take `CCOCCN(C)C(=O)N[C@@H](C(=O)N1CCN(C)CC1)[C@@H](C)c1ccc(NC(=O)[C@@H](NC(=O)c2ccnn2CC)C(C2CC2)C2CC2)c(F)c1` [Compound 316]: the IC50 at IL-17A/A is 10 to 100 nM; at IL-17A/F, 100 to 10000 nM.

Turning to `CCC(=O)N[C@@H](C(=O)N1C[C@@H](C)N(C)C[C@H]1C)[C@@H](C)c1ccc(NC(=O)[C@@H](NC(=O)C2(F)CC2)C(C2CC2)C2CC2)c(F)c1` [Compound 288], the IC50 on IL-17A/A is below 10 nM; at IL-17A/F, 100 to 10000 nM.

`CCOC(=O)N[C@@H](CF)C(=O)N[C@@H](C(=O)N1CCN(C)[C@H](C)C1)[C@@H](C)c1ccc(NC(=O)[C@@H](NC(=O)C2(F)CC2)C(C2CC2)C2CC2)c(F)c1` [Compound 358]: the IC50 at IL-17A/A was below 10 nM; on IL-17A/F, 100 to 10000 nM.

For `C[C@@H](c1ccc(NC(=O)[C@@H](NC(=O)C2(F)CC2)C(C2CC2)C2CC2)c(F)c1)[C@@H](NC(=O)N(C)C1CC1)C(=O)N1C[C@H]2CC[C@@H](C1)N2C` [Compound 295], the IC50 at IL-17A/A was below 10 nM; on IL-17A/F it was 100 to 10000 nM.

For `CCC(OC)C(=O)N[C@@H](C(=O)N1CCN(C)[C@H](C)C1)[C@@H](C)c1ccc(NC(=O)[C@@H](NC(=O)C2(F)CC2)C(C2CC2)C2CC2)c(F)c1` (single isomer, unassigned) [Compound 337], the IC50 on IL-17A/A was below 10 nM. Also, on IL-17A/F, the “IL17AF HEK Blue pIC50” value is listed as “C (7>C≥5)”.

For `CCC(OC)C(=O)N[C@@H](C(=O)N1CCN(C)[C@H](C)C1)[C@@H](C)c1ccc(NC(=O)[C@@H](NC(=O)C2(F)CC2)C(C2CC2)C2CC2)c(F)c1` (single isomer, unassigned) [Compound 336], the IC50 is 10 to 100 nM at IL-17A/A and 100 to 10000 nM on IL-17A/F.

As to `C[C@@H](c1ccc(NC(=O)[C@@H](NC(=O)C2(F)CC2)C(C2CC2)C2CC2)c(F)c1)[C@@H](NC(=O)N(C)C1CC1)C(=O)N1CCN(C)CC1` [Compound 270], the IC50 at IL-17A/A is below 10 nM; on IL-17A/F, 100 to 10000 nM.

In the case of `CCn1nccc1C(=O)N[C@H](C(=O)Nc1ccc(C(C(NC(=O)[C@H](C)OC)C(=O)N2CCN(C)[C@H](C)C2)C(F)(F)F)cc1F)C(C1CC1)C1CC1` (single isomer, unassigned) [Compound 355], the IC50 on IL-17A/A and at IL-17A/F was 100 to 10000 nM in each case.

On to `CCC(OC)C(=O)N[C@@H](C(=O)N1CCN(C)CC1)[C@@H](C)c1ccc(NC(=O)[C@@H](NC(=O)c2ccnn2CC)C(C2CC2)C2CC2)c(F)c1` (single isomer, unassigned) [Compound 340], for which the IC50 on IL-17A/A was below 10 nM; at IL-17A/F it was 10 to 100 nM.

Regarding `CCOCCN(C)C(=O)N[C@@H](C(=O)N1CCN(C)[C@H](C)C1)[C@@H](C)c1ccc(NC(=O)[C@@H](NC(=O)c2ccnn2CC)C(C2CC2)C2CC2)c(F)c1` [Compound 313], the IC50 on IL-17A/A was 10 to 100 nM; at IL-17A/F, 100 to 10000 nM.

Take `CCC(=O)N[C@@H](C(=O)N1CCN(C)CC1)[C@@H](C)c1ccc(NC(=O)[C@@H](NC(=O)c2ccnn2CC)C(C2CC2)C2CC2)c(F)c1` [Compound 200]: the IC50 on IL-17A/A and on IL-17A/F was 10 to 100 nM each time.

For `COC(=O)N1CCC[C@H]1C(=O)N[C@@H](C(=O)N1CCN(C)[C@H](C)C1)[C@@H](C)c1ccc(NC(=O)[C@@H](NC(=O)C2(F)CC2)C(C2CC2)C2CC2)c(F)c1` [Compound 281], the IC50 at IL-17A/A was below 10 nM; at IL-17A/F, 100 to 10000 nM.

Regarding `CCn1nccc1C(=O)N[C@H](C(=O)Nc1ccc([C@H](C)[C@@H](NC(=O)[C@H](C)OC)C(=O)N2CCN(C)[C@H](C)C2)cc1F)C(C1CC1)C1CC1` [Compound 221], the IC50 at IL-17A/A is below 10 nM; at IL-17A/F, 10 to 100 nM.

Turning to `CCC(=O)N[C@@H](C(=O)N1CCN(C)[C@H](C)C1)[C@@H](C)c1ccc(NC(=O)[C@@H](NC(=O)c2nonc2C)C(C2CC2)C2CC2)c(F)c1` [Compound 246], the figures for the IC50 on IL-17A/A and on IL-17A/F were below 10 nM and 100 to 10000 nM, respectively.

With `CCC(=O)N[C@@H](C(=O)N1CCN(C)CC1)[C@@H](C)c1ccc(NC(=O)[C@@H](NC(=O)c2ccnn2CCF)C(C2CC2)C2CC2)c(F)c1` [Compound 216], the IC50 at IL-17A/A and on IL-17A/F was 10 to 100 nM throughout.

Regarding `CCn1nccc1C(=O)N[C@H](C(=O)Nc1ccc([C@H](C)[C@@H](NC(=O)C(C)CC(F)(F)F)C(=O)N2CCN(C)[C@H](C)C2)cc1F)C(C1CC1)C1CC1` (single isomer, unassigned) [Compound 324], the IC50 is below 10 nM at IL-17A/A and 10 to 100 nM at IL-17A/F.

Take `CO[C@@H](C)C(=O)N[C@@H](C(=O)N1CCN(C)CC1)[C@@H](C)c1ccc(NC(=O)[C@@H](NC(=O)c2ccnn2C2CC2)C(C2CC2)C2CC2)c(F)c1` [Compound 341]: the figures for the IC50 at IL-17A/A and on IL-17A/F were below 10 nM and 100 to 10000 nM, respectively.

With `CCn1nccc1C(=O)N[C@H](C(=O)Nc1ccc([C@H](C)[C@@H](NC(=O)C(C)C2CC2)C(=O)N2CCN(C)CC2)cc1F)C(C1CC1)C1CC1` (single isomer, unassigned) [Compound 317], the IC50 at IL-17A/A was below 10 nM; on IL-17A/F, 10 to 100 nM.

As to `CCn1nccc1C(=O)N[C@H](C(=O)Nc1ccc([C@H](C)[C@@H](NC(=O)C(C)OCCOC)C(=O)N2CCN(C)[C@H](C)C2)cc1F)C(C1CC1)C1CC1` (single isomer, unassigned) [Compound 311], the results for the IC50 at IL-17A/A and on IL-17A/F were 10 to 100 nM and 100 to 10000 nM, respectively.

For the compound `CCn1nccc1C(=O)N[C@H](C(=O)Nc1ccc([C@H](C)[C@@H](NC(=O)C(C)OCCOC)C(=O)N2CCN(C)CC2)cc1F)C(C1CC1)C1CC1` (single isomer, unassigned) [Compound 314], the IC50 at IL-17A/A and on IL-17A/F was 100 to 10000 nM throughout.
